# Results as given in patent US10124065B2, “Lipids and lipid compositions for the delivery of active agents” (Novartis AG, priority 2013, dated 2018).
# How the values were obtained:
# [1] = Particle size of lipid nanoparticle (dynamic light scattering, Malvern Zetasizer); type: physicochemical
# Summary of the method: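 Sizes are average diameters of fully formed nanoparticles measured by dynamic light scattering. Samples were diluted in PBS to a count rate of about 200–400 kcts. Values are intensity-weighted Z-average sizes.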
# [2] = Polydispersity index (PDI) of lipid nanoparticle (dynamic light scattering); type: physicochemical
# Description: Unless indicated otherwise, all PDIs referred to herein are the PDI of the fully formed nanoparticle, as measured by dynamic light scattering on a Malvern Zetasizer. The nanoparticle sample was diluted in phosphate buffered saline (PBS) so that the count rate was approximately 200-400 kcts. The data is presented in Tables 4 and 5 as a weighted average of the intensity measure.
# [3] = Measurement of mRNA encapsulation (Quant-iT Ribogreen); type: physicochemical; conditions: leptin mRNA in lipid nanoparticles (cationic lipid, DSPC, cholesterol, stealth lipid)
# Description: All equipment and disposable supplies were certified free of RNase activity by the manufacturer or rendered RNase free by use of the RNaseZap reagent (LifeTechnologies). mRNA was encapsulated at a cationic lipid amine to mRNA phosphate (N:P) molar ratio of 4:1. Lipids (cationic lipid, DSPC, cholesterol and lipidated PEG or stealth lipid) were dissolved in ethanol. The molar ratios were […], respectively. The mixture was sonicated briefly, then gently agitated for 5 minutes and then maintained at 37° C. until use. mRNA was exchanged into citrate buffer pH 5.8-6.0 by use of Amicon Ultra-15 centrifugal concentrators, and the final concentration was adjusted to 0.5 mg/ml and held at 37° C. until use. An equal volume of lipids in ethanol, mRNA in citrate buffer, and citrate buffer alone were drawn into disposable syringes. Tubing leading from syringes containing lipids and mRNA are attached to the T junction, and tubing leading from the syringe containing citrate buffer alone was paired with the tubing exiting the T-junction over a collection vessel containing a stir bar on an active stir plate. Syringes were placed in a syringe pump set to expel contents at a flow rate of 1 ml per minute.
# The pump was activated, and the collected mRNA in lipid nanoparticles was transferred to SnakeSkin dialysis tubing (10,000 MWCO, Thermo Scientific). Material was dialyzed against RNAse- and pyrogen-free 1× phosphate buffered saline overnight at 4° C.
# Percent encapsulation of mRNA in lipid nanoparticles was determined using the Quant-iT Ribogreen RNA Assay kit (Life Technologies). The LNP-mRNA suspension was assayed in buffer (mRNA outside the particle), and buffer plus Triton X-100 detergent (total mRNA). The difference calculated was the mRNA inside the particle. A 1000 ng/mL stock from the RNA provided in the kit was prepared and used to generate a standard curve (0 ng/ml, 15.63-1000 ng/ml) in TE and TE+0.75% Triton X-100. LNP-mRNA samples in TE buffer and TE buffer+0.75% Triton X-100 were prepared with appropriate dilution so that reading was in the range of standard curve (400-2,000 fold). In a 384-well plate (Costar non-treated #3573) 0.04 ml of standard (in duplicate) or sample (in triplicate) were added per well. Ribogreen reagent was diluted 240-fold in TE buffer and added 0.06 ml per well. The contents of wells were mixed and fluorescence was measured (excitation=480 nm, emission=520 nm). Background values (no RNA) were subtracted from standard and test sample values and the concentrations of RNA were determined in the samples using the standard curves. The percent encapsulation of the sample was determined by dividing the difference in concentrations between sample+triton and sample in buffer alone by the sample+triton concentration.
# human leptin = assay: Mouse intravenous tail vein injection of modified synthetic leptin mRNA, human leptin ELISA; type: in vivo, C57BL/6 mouse; conditions: human leptin in mouse plasma, 10 μg leptin mRNA
# Description: Before the tail vein injection, mouse body weights were recorded and diet weighted, with mice grouped according to their body weights. Mice were prepared by warming them under a heating lamp for ˜2 minutes, with the mice about 12 inches from heat lamp.
# For the tail vein injection procedure, the mice were placed in a restrainer and their tails cleaned with 70% alcohol. A 27 gauge needle (Becton Dickinson, Catalogue #305109) connected with a 1 ml syringe (Becton Dickinson, Catalogue #309659) was inserted into the tail vein, with bevel facing up, and the syringe plunger was pulled backwards to ensure blood is drawn into the syringe. The desired volume of modified synthetic leptin mRNA was injected by hand with moderate pressure and speed. The needle was then withdrawn and bleeding stopped by adding pressure to injection site with gauze.
# Single housed, 8-9 week old, male C57BL/6 mice were used for the in vivo study. FPLC purified modified synthetic leptin mRNA (SEQ ID NO: 5) in which the uridines were substituted with pseudouridine was packaged in a cationic lipid (N:P molar ratio=8:1) and then were diluted in injectable saline at a dose of 10 μg per average group body weight.
# On day 0, animals were weighed and sorted according to average body weight. Mice were dosed, and food intake (FI) was recorded, on each of days 1-7 and days 9, 11, and 16.
# Human leptin in mouse plasma was measured by ELISA. Antibodies purchased from the R&D Systems duoset (Cat# DY398E, part#840279 for capture antibody and part#840280 for detection antibody) were reconstituted using PBS and titered, again using PBS. The capture antibody was coated at 4 ug/ml in 30 ul/well on a white Nunc® Maxisorp 384 well plate (Cat#460372). After an overnight incubation at room temperature the capture antibody was aspirated and the plate blocked for 2 hours at room temperature with 90 ul/well of KPL milk blocker (Cat#50-82-00). Once the incubation was completed the plate was aspirated and recombinant standards and samples were added to the plate at 30 ul/well for 2 hours at 37° C. while shaking at 600 rpm. Sample/standard dilutions were made using casein sample diluent. Washing/aspiration 3 times with 100 ul/well followed, using Teknova plate wash solution (Cat# P1192). Next, detection antibody was diluted using casein detection antibody diluent to 12.5 ng/ml and added at 30 ul/well for 2 hours room temperature. After this incubation, the plate was washed again and a solution of poly-streptavidin-HRP (Cat#21140) at a 1:1250 dilution in HRP dilution buffer was added to each well (30 ul/well) and incubated for 30 minutes room temperature. A final wash/aspiration removed the HRP solution and a chemiluminescent substrate was added at 30 ul/well (Cat#1859678 & 1859679). The plate was quickly read using a SpectramaxM5 plate reader with a 50 ms integration time. The dynamic range of the ELISA is from 100-2,000 pg/ml (6.25-125 pM) of human leptin.
# [4] = FVII siRNA LNP, Chol/DSPC/S010, molar ratio 45/44/9/2, Z-average
# [5] = leptin mRNA lipid nanoparticles
# [6] = FVII siRNA LNP, Chol/DSPC/S010, molar ratio 45/44/9/2
"Size (nm) [1, 4] [nm]","Size (nm) [1, 5] [nm]","PDI [2, 6]","PDI [2, 5]",% encapsulation [3] [%],SMILES,"Leptin expression IV-C57BI/6, 24 h (human leptin) [ng/mL]","Leptin expression IV-C57BI/6 (ng/mL), 6 h (human leptin; 6 h)"
178.2,164.0,0.043,0.150,71.1,"CCCCCCCC(=O)OCCCCCCCCCCOC(=O)CCC(=O)OCc1cc(COC(=O)CCC(=O)OCCCCCCCCCCOC(=O)CCCCCCC)cc(CN(C)C)c1 [Example 78, O,O′-((5-((dimethylamino)methyl)-1,3-phenylene)bis(methylene))bis(10-(octanoyloxy)decyl)disuccinate]",0.96,–
–,140.5,–,0.116,91.6,"CCCCCCCCCOC(=O)CCCCCCC(=O)OCc1cc(COC(=O)CCCCCCC(=O)OCCCCCCCCC)cc(CN(C)C)c1 [Example 79, O′^1,O^1-((5-((dimethylamino)methyl)-1,3-phenylene)bis(methylene)) 8-dinonyl dioctanedioate]",–,1.36 (6 h) ng/mL
87.54,164.7,0.073,0.090,80.9,"CCCCCCCCCCCCOC(=O)CCCCCOc1cc(CN(C)C)cc(OCCCCCC(=O)OCCCCCCCCCCCC)c1 [Example 90, didodecyl 6,6′-((5-((dimethylamino)methyl)-1,3-phenylene)bis(oxy))dihexanoate]",0.74,–
